Assay results published in patent US5929076A, “Cycloalkyl substituted imidazoles” (SmithKline Beecham Corporation, priority 1998, dated 1999).

Test system: human PGHS-2 protein expression in LPS stimulated human monocytes
Experiment: Prostoglandin endoperoxide synthase-2 (PGHS-2) assay
Format: cell-based
Details: rank order potency similar to that for inhibiting cytokine production
Experimental: The following assay describes a method for determining the inhibitory effects of compounds of Formula (I) on human PGHS-2 protein expression in LPS stimulated human monocytes. Method: Human peripheral blood monocytes were isolated from buffy coats by centrifugation through Ficoll and Percoll gradients. Cells were seeded at 2×10^6 /well in 24 well plates and allowed to adhere for 1 hour in RPMI supplemented with 1% human AB serum, 20 mM L-glutamine, Penicillin-Streptomycin and 10 mM HEPES. Compounds were added at various concentrations and incubated at 37° C. for 10 minutes. LPS was added at 50 ng/well (to induce enzyme expression) and incubated overnight at 37° C. The supernatant was removed and cells washed once in cold PBS. The cells were lysed in 100 μl of cold lysis buffer(50 mM Tris/HCl pH 7.5, 150 mM NaCl, 1% NP40, 0.5% sodium deoxycholate, 0.1% SDS, 300 ug/ml DNAse, 0.1% TRITON X-100, 1 mM PMSF, 1 mM leupeptin, 1 mM pepstatin). The lysate was centrifuged (10,000×g for 10 min. at 4° C.) to remove debris and the soluble fraction was subjected to SDS PAGE. analysis (12% gel). Protein separated on the gel were transferred onto nitrocellulose membrane by electrophoretic means for 2 hours at 60 volts. The membrane was pretreated for one hour in PBS/0.1% Tween 20 with 5% non-fat dry milk. […]

## Fc1ccc(-c2nc3n(c2-c2ccncc2)CCS3)cc1 [6-(4-Fluorophenyl)-2,3-dihydro-5-(4-pyridinyl)imidazo[2,1-b]thiazole]
  inhibition of LPS induced PGHS-2 protein expression: active

## C[C@@H]1C[C@H]2[C@@H]3CCC4=CC(=O)C=C[C@]4(C)[C@@]3(F)[C@@H](O)C[C@]2(C)[C@@]1(O)C(=O)CO [Dexamethasone]
  inhibition of LPS induced PGHS-2 protein expression: active
